Consider nine molecules from ChEMBL document CHEMBL3124929, “Novel S1P(1) receptor agonists--part 3: from thiophenes to pyridines” (J Med Chem, 2014).

Molecules are shown by their SMILES.

Series [1] in a line: Plasma concentration in Wistar rat at 10 mg/kg, po after 3 hrs. Format: ADME, organism-based. More on the design: dose 10 mg/kg, route oral.
The nature of series [2]: Plasma concentration in Wistar rat at 10 mg/kg, po after 6 hrs. It counts as ADME, organism-based. More on the design: dose 10 mg/kg, route oral.
Series [3] in a line: Plasma concentration in Wistar rat at 10 mg/kg, po after 24 hrs. Format: ADME, organism-based. Also on record: dose 10 mg/kg, route oral.
Series [4] is described as follows: Drug uptake in Wistar rat brain at 10 mg/kg, po after 2 hrs. The settings on record: read-out: Drug uptake. It counts as ADME, organism-based. More on the design: dose 10 mg/kg, route oral.
A short description of series [5]: Drug uptake in Wistar rat brain at 10 mg/kg, po after 24 hrs. Format: ADME, organism-based. Also on record: dose 10 mg/kg, route oral. To be noted: read-out: Drug uptake.
Series [6] is described as follows: Plasma concentration in Wistar rat at 10 mg/kg, po after 2 hrs. More on the design: dose 10 mg/kg, route oral. Format: ADME, organism-based.
A short description of series [7]: Drug uptake in Wistar rat brain at 10 mg/kg, po after 6 hrs. Also on record: dose 10 mg/kg, route oral. It counts as ADME, organism-based. The settings on record: read-out: Drug uptake.
The nature of series [8]: Cmax in cynomolgus monkey at 1 mg/kg, po by LC-MS/MS analysis. Format: ADME, organism-based, Macaca fascicularis. Also on record: dose 1 mg/kg, route oral. To be noted: in vivo.
Series [9] is described as follows: Cmax in Beagle dog at 3 mg/kg, po by LC-MS/MS analysis. Also on record: dose 3 mg/kg, route oral. To be noted: in vivo. Format: ADME, organism-based, Canis lupus familiaris.
Series [10] is described as follows: Tmax in Wistar rat brain at 10 mg/kg, po. Format: ADME, organism-based. More on the design: dose 10 mg/kg, route oral.
The nature of series [11]: AUC (0 to 24 hrs) in Beagle dog at 3 mg/kg, po by LC-MS/MS analysis. It counts as ADME, organism-based, Canis lupus familiaris. More on the design: time < 24 hr, dose 3 mg/kg, route oral. To be noted: plasma.
Series [12] is described as follows: AUC (0 to 24 hrs) in cynomolgus monkey at 1 mg/kg, po by LC-MS/MS analysis. Also on record: time < 24 hr, dose 1 mg/kg, route oral. It counts as ADME, organism-based, Macaca fascicularis. To be noted: plasma.
The nature of series [13]: Volume of distribution at steady state in cynomolgus monkey at 1 mg/kg, iv by LC-MS/MS analysis. It counts as ADME, organism-based, Macaca fascicularis. More on the design: dose 1 mg/kg, route intravenous. To be noted: in vivo, read-out: Vdss.
Series [14] in a line: Cmax in Wistar rat at 10 mg/kg, po by LC-MS/MS analysis. It counts as ADME, organism-based. More on the design: dose 10 mg/kg, route oral. The settings on record: in vivo.
Series [15] can be described thus: AUC (0 to infinity) in Beagle dog at 1 mg/kg, iv by LC-MS/MS analysis. It counts as ADME, organism-based, Canis lupus familiaris. More on the design: time infinity, dose 1 mg/kg, route intravenous. The settings on record: plasma.
A short description of series [16]: AUC (0 to infinity) in cynomolgus monkey at 1 mg/kg, iv by LC-MS/MS analysis. It counts as ADME, organism-based, Macaca fascicularis. To be noted: plasma. Also on record: time infinity, dose 1 mg/kg, route intravenous.
The nature of series [17]: Tmax in Beagle dog at 3 mg/kg, po by LC-MS/MS analysis. It counts as ADME, organism-based, Canis lupus familiaris. More on the design: dose 3 mg/kg, route oral. The settings on record: in vivo.
Series [18] in a line: Volume of distribution at steady state in Beagle dog at 1 mg/kg, iv by LC-MS/MS analysis. The settings on record: in vivo, read-out: Vdss. It counts as ADME, organism-based, Canis lupus familiaris. More on the design: dose 1 mg/kg, route intravenous.
The nature of series [19]: Tmax in Wistar rat plasma at 10 mg/kg, po. It counts as ADME, organism-based. More on the design: dose 10 mg/kg, route oral.
Series [20] in a line: Tmax in Wistar rat at 10 mg/kg, po by LC-MS/MS analysis. Format: ADME, organism-based. More on the design: dose 10 mg/kg, route oral. The settings on record: in vivo.
Series [21] can be described thus: Oral bioavailability in cynomolgus monkey at 1 mg/kg by LC-MS/MS analysis. Format: ADME, organism-based, Macaca fascicularis. To be noted: in vivo.
Series [22] is described as follows: AUC (0 to infinity) in Wistar rat at 1 mg/kg, iv by LC-MS/MS analysis. Format: ADME, organism-based. More on the design: time infinity, dose 1 mg/kg, route intravenous. To be noted: plasma.
The nature of series [23]: Oral bioavailability in Wistar rat at 10 mg/kg by LC-MS/MS analysis. Format: ADME, organism-based. To be noted: in vivo.
The nature of series [24]: Tmax in cynomolgus monkey at 1 mg/kg, po by LC-MS/MS analysis. The settings on record: in vivo. It counts as ADME, organism-based, Macaca fascicularis. More on the design: dose 1 mg/kg, route oral.
Series [25] is described as follows: Volume of distribution at steady state in Wistar rat at 1 mg/kg, iv by LC-MS/MS analysis. To be noted: in vivo, read-out: Vdss. Also on record: dose 1 mg/kg, route intravenous. Format: ADME, organism-based.
Series [26] in a line: Oral bioavailability in Beagle dog at 3 mg/kg by LC-MS/MS analysis. Format: ADME, organism-based, Canis lupus familiaris. To be noted: in vivo.
A short description of series [27]: AUC (0 to 32 hrs) in Wistar rat at 10 mg/kg, po by LC-MS/MS analysis. Format: ADME, organism-based. Also on record: time < 32 hr, dose 10 mg/kg, route oral. To be noted: plasma.
Series [28] can be described thus: AUC (0 to 24 hrs) in Wistar rat at 1 mg/kg, po by LC-MS/MS analysis. Format: ADME, organism-based. Also on record: time < 24 hr, dose 1 mg/kg, route oral. To be noted: plasma.
The nature of series [29]: Tmax in Wistar rat at 1 mg/kg, po by LC-MS/MS analysis. It counts as ADME, organism-based. More on the design: dose 1 mg/kg, route oral. The settings on record: in vivo.
Series [30] in a line: Cmax in Wistar rat at 1 mg/kg, po by LC-MS/MS analysis. Also on record: dose 1 mg/kg, route oral. To be noted: in vivo. It counts as ADME, organism-based.
A short description of series [31]: Volume of distribution at steady state in Wistar rat at 0.5 mg/kg, iv by LC-MS/MS analysis. It counts as ADME, organism-based. Also on record: dose 0.5 mg/kg, route intravenous. The settings on record: in vivo, read-out: Vdss.
Series [32] in a line: AUC (0 to infinity) in Wistar rat at 0.5 mg/kg, iv by LC-MS/MS analysis. It counts as ADME, organism-based. Also on record: time infinity, dose 0.5 mg/kg, route intravenous. The settings on record: plasma.
A short description of series [33]: Oral bioavailability in Wistar rat at 1 mg/kg by LC-MS/MS analysis. The settings on record: in vivo. It counts as ADME, organism-based.
The nature of series [34]: AUC (0 to 24 hrs) in Wistar rat at 10 mg/kg, po by LC-MS/MS analysis. The settings on record: plasma. Format: ADME, organism-based. More on the design: time < 24 hr, dose 10 mg/kg, route oral.

On to `CCc1cc(-c2noc(-c3cc(C)c(C4CCCC4)cn3)n2)cc(C)c1OC[C@@H](O)CNC(=O)CO`, for which the concentration at 3 h in series [1] was 4910 nM. For the same molecule, the concentration at 6 h in [2] came to 3690 nM. This molecule also showed a concentration at 24 h in [3] of 800 nM.

`CCc1cc(-c2noc(-c3cc(C4CCCC4)cc(C)n3)n2)cc(C)c1OC[C@@H](O)CNC(=O)CO` yielded a concentration at 3 h in series [1] of 1890 nM. In [2], this molecule showed a concentration at 6 h of 1070 nM. For the same molecule, the concentration at 24 h in series [3] is 9 nM.

As for `CCc1cc(-c2noc(-c3cc(C)nc(N(CC)CC)c3)n2)cc(C)c1OC[C@@H](O)CO`, the figures for the concentration at 6 h in series [2] and in [7] were 254 ng/mL and 271 ng/mL, respectively. Besides, the results for the concentration at 2 h in series [4] and in [6] were 435 ng/mL and 608 ng/mL, respectively. Besides, the values for the concentration at 24 h in [5] and in series [3] were 34 ng/mL and 22 ng/mL, respectively.

For the molecule `CCc1cc(-c2noc(-c3cc(C)nc(N(CC)CC)c3)n2)cc(C)c1OC[C@@H](O)CNC(=O)CO`, the figures for the Cmax in series [8], in series [9] and in series [14] were 97 ng/mL, 546 ng/mL and 1090 ng/mL, respectively. Besides, the concentration at 6 h came out at 1780 ng/mL in series [2] and 653 ng/mL in series [7]. The concentration at 2 h stood at 269 ng/mL in series [4] and 2170 ng/mL in series [6]. Moreover, the Tmax (in general, the time from dosing to the highest level) in [10] was 6 h; in series [17] it was 1 h; in series [19], 2 h; in [20], 2 h; in series [24], 2 h. Further, the AUC(0-t) (commonly exposure summed from dosing to a finite time, without extrapolation to infinity) at 24 h in [11] came out at 3250 ng·h/mL; in series [12], 866 ng·h/mL. For the same molecule, the results for the Vd in [13], in series [18] and in series [25] were 1.1 L/kg, 1.2 L/kg and 3.5 L/kg, respectively. Also, the concentration at 24 h was found to be 487 ng/mL in series [5] and 412 ng/mL in series [3]. Also, the AUC(0-inf) (in general, total exposure, with the tail of the curve extrapolated) in series [15] is 3350 ng·h/mL; in [16], 5450 ng·h/mL; in series [22], 3200 ng·h/mL. Also, the bioavailability in series [21] was 16%; in series [23], 52%; in [26], 32%. In addition, the AUC(0-t) at 32 h in [27] was determined as 16500 ng·h/mL.

`CCc1cc(-c2noc(-c3cc(C)nc(C4CCCC4)c3)n2)cc(C)c1OC[C@@H](O)CNC(=O)CO` came in with an AUC(0-t) at 24 h in series [28] of 436 ng·h/mL. Also, the Tmax in series [29] was 3 h. Besides, the concentration in series [30] peaked (Cmax) at 49 ng/mL. Moreover, the Vd in series [31] was 7.3 L/kg. The AUC(0-inf) in series [32] stood at 566 ng·h/mL. The bioavailability in [33] is 39%.

Consider `CCc1cc(-c2noc(-c3cc(C)nc(C(CC)CC)c3)n2)cc(C)c1OC[C@@H](O)CNC(=O)CO`, for which the AUC(0-t) at 24 h in series [34] was 1760 ng·h/mL. Further, in series [14], the Cmax (in general, the maximum level reached in the sampled fluid or tissue) is 804 ng/mL. Moreover, in series [31], the Vd was 3.4 L/kg. For the same molecule, in [32], the AUC(0-inf) is 69.9 ng·h/mL. Further, the Tmax in series [20] was found to be 0.5 h. Moreover, in series [23], the bioavailability was 126%.

As to `CCc1cc(-c2nnc(-c3cc(C)nc(N(CC)CC)c3)o2)cc(C)c1OC[C@@H](O)CNC(=O)CO`, the concentration at 6 h in series [2] is 510 ng/mL; in [7] it was 52 ng/mL. In addition, the concentration at 2 h worked out at 46 ng/mL in [4] and 815 ng/mL in series [6]. The concentration at 24 h in [5] amounted to 3 ng/mL; in series [3], 8 ng/mL.

In the case of `CCc1cc(-c2nnc(-c3cc(C)nc(N(CC)CC)c3)o2)cc(C)c1OC[C@@H](O)CO`, the concentration at 6 h stood at 315 ng/mL in series [2] and 215 ng/mL in series [7]. Besides, the concentration at 2 h in series [4] was 600 ng/mL; in [6], 820 ng/mL. For the same molecule, the figures for the concentration at 24 h in series [5] and in series [3] were 2 ng/mL and 4 ng/mL, respectively.

On to `CCc1cc(-c2nc(-c3cc(C)nc(N(CC)CC)c3)no2)cc(C)c1OC[C@@H](O)CNC(=O)CO`, for which the values for the concentration at 6 h in series [2] and in series [7] were 918 ng/mL and 369 ng/mL, respectively. The concentration at 2 h in series [4] turned out to be 140 ng/mL; in series [6], 875 ng/mL. Besides, the concentration at 24 h in series [5] worked out at 301 ng/mL; in series [3], 230 ng/mL.
